In patent US12460243B2, “Mass spectrometry determination of the sensitivity or resistance of bacteria to an antibiotic” (priority 2019, dated 2025):
Bridge positions count the residues as written; N and C are the ends. Square brackets hold non-standard residues; d marks the D form. Peptide text beside a SMILES is read from it. * marks the point of attachment. Heptanoyl(6-Me) = CC(C)CCCCC(=O)*; Dab = NCC[C@H](N)C(=O)O

Test system: Klebsiella pneumoniae
Test: MALDI-TOF detection of released characteristic proteins, 10 min at 50° C., filtration (examples V, VI)
Type: cell-based
Conditions: colistin 2.5 mg/ml, 10 min 50° C.
Experimental: The tests were carried out using the following steps: • preparing a suspension of microorganism at 2 McF in water (suspension medium, bioMérieux reference 70700), • preparing a solution of colistin sulfate (Sigma reference C4461) at a concentration of 2× in pure water (taking into account the colistin titer indicated by the manufacturer).
The proteins characteristic of the species Klebsiella pneumoniae are the DNA binding protein H-NS, the ribosomal proteins L29, L31, L34 and US9, the cold shock protein containing a CsbD domain (CsbD domain-containing protein), and the uncharacterized proteins with m/z 6290 and 8308. These proteins are characterized respectively by the peaks at 7705 (DNA binding protein H-NS), 7274 (L29), 7743 (L31), 5381 (L34), 7384 (US9), 8309 (CsbD), more or less 1000 parts per million (ppm). For their part, the hypothetical proteins are characterized by peaks at 6290 and […], more or less 1000 parts per million (ppm).
In the context of this example, the tests were carried out with the method of the present invention to determine the sensitivity or resistance of several bacteria of several strains such as in example V and comprising the following steps: • measuring the intensity of each peak observed, • finding a ratio between the sum of the intensities of the protein peaks of the microorganism and at least 1 peak of colistin. • determining the status, resistant or sensitive to colistin, as a function of the sum of the ratios obtained and of a threshold fixed for each species. • a resistant microorganism will have a low ratio and a sensitive microorganism will have a high ratio.
The K. pneumoniae strains KP S10-1, KP S10-2, KP S15-1, KP S15-2, KP R9-1, KP R9-2, KP R16-1 and KP R16-2 are also studied and the proteins characteristic of the species K. pneumoniae are analyzed. These characteristic proteins are the DNA binding protein H-NS, the ribosomal proteins L29, L31, L34 and US9, the cold shock protein containing a CsbD domain (CsbD domain-containing protein), and the uncharacterized proteins with m/z 6290 and 8308.

CC(C)CCCCC(=O)N[C@@H](CCN)C(=O)N[C@H](C(=O)N[C@@H](CCN)C(=O)N[C@H]1CCNC(=O)[C@H]([C@@H](C)O)NC(=O)[C@H](CCN)NC(=O)[C@H](CCN)NC(=O)[C@H](CC(C)C)NC(=O)[C@@H](CC(C)C)NC(=O)[C@H](CCN)NC1=O)[C@@H](C)O [colistin] ({Heptanoyl(6-Me)}-[Dab]T[Dab][Dab][Dab][dL]L[Dab][Dab]T; lactam 4-C)
0 unité arbitraire: Aire sous la courbe des pics observés, 8308 (strain KP R9-1) | Aire sous la courbe des pics observés, CsbD domain-containing protein (strain KP R9-1) | Aire sous la courbe des pics observés, Protéine ribosomique 50S L29 (strain KP R9-1) | Aire sous la courbe des pics observés, Protéine ribosomique 50S L31 (strain KP R9-1) | Aire sous la courbe des pics observés, Protéine ribosomique 50S L34 (strain KP R9-1) | Aire sous la courbe des pics observés, US9 (strain KP R9-1) | Aire sous la courbe des pics observés, 8308 (strain KP R9-2) | Aire sous la courbe des pics observés, CsbD domain-containing protein (strain KP R9-2) | Aire sous la courbe des pics observés, Protéine ribosomique 50S L29 (strain KP R9-2) | Aire sous la courbe des pics observés, Protéine ribosomique 50S L31 (strain KP R9-2) | Aire sous la courbe des pics observés, Protéine ribosomique 50S L34 (strain KP R9-2) | Aire sous la courbe des pics observés, US9 (strain KP R9-2) | Aire sous la courbe des pics observés, 8308 (strain KP R16-1) | Aire sous la courbe des pics observés, CsbD domain-containing protein (strain KP R16-1) | Aire sous la courbe des pics observés, Protéine ribosomique 50S L29 (strain KP R16-1) | Aire sous la courbe des pics observés, Protéine ribosomique 50S L31 (strain KP R16-1) | Aire sous la courbe des pics observés, Protéine ribosomique 50S L34 (strain KP R16-1) | Aire sous la courbe des pics observés, US9 (strain KP R16-1) | Aire sous la courbe des pics observés, 8308 (strain KP R16-2) | Aire sous la courbe des pics observés, CsbD domain-containing protein (strain KP R16-2) | Aire sous la courbe des pics observés, Protéine ribosomique 50S L29 (strain KP R16-2) | Aire sous la courbe des pics observés, Protéine ribosomique 50S L31 (strain KP R16-2) | Aire sous la courbe des pics observés, Protéine ribosomique 50S L34 (strain KP R16-2) | Aire sous la courbe des pics observés, US9 (strain KP R16-2) | Aire sous la courbe des pics observés, CsbD domain-containing protein (strain KP S10-1)
837 unité arbitraire: Aire sous la courbe des pics observés, 6290 (strain KP S10-1)
89 unité arbitraire: Aire sous la courbe des pics observés, DNA binding protein H-NS (strain KP R9-2)
209 unité arbitraire: Aire sous la courbe des pics observés, 8308 (strain KP S10-1)
0.00 unité arbitraire: Aire sous la courbe des pics observés, 6290 (strain KP R9-1) | Aire sous la courbe des pics observés, DNA binding protein H-NS (strain KP R9-1) | Aire sous la courbe des pics observés, 6290 (strain KP R9-2) | Aire sous la courbe des pics observés, 6290 (strain KP R16-1) | Aire sous la courbe des pics observés, DNA binding protein H-NS (strain KP R16-1) | Aire sous la courbe des pics observés, 6290 (strain KP R16-2) | Aire sous la courbe des pics observés, DNA binding protein H-NS (strain KP R16-2)
374 unité arbitraire: Aire sous la courbe des pics observés, DNA binding protein H-NS (strain KP S10-1)
0.11: Ratio par protéine DNA BP H-NS/Colistine (strain KP R9-2) | Somme des ratios (strain KP R9-2)
0.00: Ratio par protéine 6290/Colistine (strain KP R9-1) | Ratio par protéine 8308/Colistine (strain KP R9-1) | Ratio par protéine CsbD/Colistine (strain KP R9-1) | Ratio par protéine DNA BP H-NS/Colistine (strain KP R9-1) | Ratio par protéine L29/Colistine (strain KP R9-1) | Ratio par protéine L31/Colistine (strain KP R9-1) | Ratio par protéine L34/Colistine (strain KP R9-1) | Ratio par protéine US9/Colistine (strain KP R9-1) | Somme des ratios (strain KP R9-1) | Ratio par protéine 6290/Colistine (strain KP R9-2) | Ratio par protéine 8308/Colistine (strain KP R9-2) | Ratio par protéine CsbD/Colistine (strain KP R9-2) | Ratio par protéine L29/Colistine (strain KP R9-2) | Ratio par protéine L31/Colistine (strain KP R9-2) | Ratio par protéine L34/Colistine (strain KP R9-2) | Ratio par protéine US9/Colistine (strain KP R9-2) | Ratio par protéine 6290/Colistine (strain KP R16-1) | Ratio par protéine 8308/Colistine (strain KP R16-1) | Ratio par protéine CsbD/Colistine (strain KP R16-1) | Ratio par protéine DNA BP H-NS/Colistine (strain KP R16-1) | Ratio par protéine L29/Colistine (strain KP R16-1) | Ratio par protéine L31/Colistine (strain KP R16-1) | Ratio par protéine L34/Colistine (strain KP R16-1) | Ratio par protéine US9/Colistine (strain KP R16-1) | Somme des ratios (strain KP R16-1) | Ratio par protéine 6290/Colistine (strain KP R16-2) | Ratio par protéine 8308/Colistine (strain KP R16-2) | Ratio par protéine CsbD/Colistine (strain KP R16-2) | Ratio par protéine DNA BP H-NS/Colistine (strain KP R16-2) | Ratio par protéine L29/Colistine (strain KP R16-2) | Ratio par protéine L31/Colistine (strain KP R16-2) | Ratio par protéine L34/Colistine (strain KP R16-2) | Ratio par protéine US9/Colistine (strain KP R16-2) | Somme des ratios (strain KP R16-2)
